From patent US20250099622A1, “COMPOSITIONS AND METHODS FOR EXPRESSING THERAPEUTICS” (priority 2022, published 2025)

Key:
[1] = background statement; cited from earlier work
Human NPR-B = molecular target: T1, Human NPR-B (Homo sapiens, UniProt P20594); assay: Biacore SPR kinetic affinity binding to immobilized NPR-B
T1 construct: purchased R&D system
T1 sequence (P20594 23-458 limits assumed): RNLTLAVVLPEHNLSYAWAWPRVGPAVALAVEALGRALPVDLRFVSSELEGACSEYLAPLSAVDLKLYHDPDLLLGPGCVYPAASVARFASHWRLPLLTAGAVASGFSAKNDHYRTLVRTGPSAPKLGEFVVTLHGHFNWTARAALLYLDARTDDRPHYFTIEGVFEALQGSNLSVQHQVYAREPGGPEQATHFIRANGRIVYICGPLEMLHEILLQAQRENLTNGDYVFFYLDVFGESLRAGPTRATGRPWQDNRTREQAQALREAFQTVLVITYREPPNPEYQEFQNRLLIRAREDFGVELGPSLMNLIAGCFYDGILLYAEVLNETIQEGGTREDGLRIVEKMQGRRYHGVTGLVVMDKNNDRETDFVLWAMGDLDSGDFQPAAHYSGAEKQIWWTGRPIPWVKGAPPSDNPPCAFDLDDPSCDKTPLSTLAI
Protocol: The biological function of these purified protein was assayed for their stimulation of production of cGMP, using NPR-B receptor positive cell line, NIH/3T3 and NPR-B negative cell line HEK293 cells. The determination of cGMP was assay by ELISA using commercial CNP as standard curves. […] Surface preparation. NBR-B was immobilized at different levels in three flow cells via standard amine coupling, leaving Fc 1 unmodified to serve as a reference. All surface plasmon resonance (SPR) analysis was performed on a BIAcore 3000 system using series CM5 sensor chips. Data processing and analysis were performed using BIAevaluation software. All sensorgrams were double referenced by subtracting the response on a reference flow cell and a blank sample. Human NPR-B (R&D system) was covalently attached to a CM5 chip via amine coupling. A surface density of 6600 RU was used for measurements with natriuretic peptides Sequential injections of CNP (0.5-8 nM) were performed at a flow rate of […] (300 s for each), followed by a dissociation time of 900 s. […] Kinetic parameters were calculated assuming a simple 1:1 (Langmuir) binding. […] All SPR analysis was performed on a BIAcore 3000 system using series CM5 sensor chips. Data processing and analysis were performed using BIAevaluation software. All sensorgrams were double referenced by subtracting the response on a reference flow cell and a blank sample. Human NPR-B (R&D system) was covalently attached to a CM5 chip via amine coupling. A surface density of 3100 RU was used for measurements with natriuretic peptides Sequential injections of AMI263 (FC4-CNP) (0.125-2 nM) were performed at a flow rate of […] (300 s for each), followed by a dissociation time of 900 s. […] Kinetic parameters were calculated assuming a simple 1:1 (Langmuir) binding. […] All SPR analysis was performed on a BIAcore 3000 system using series CM5 sensor chips. Data processing and analysis were performed using BIAevaluation software. All sensorgrams were double referenced by subtracting the response on a reference flow cell and a blank sample. Human NPR-B (R&D system) was covalently attached to a CM5 chip via amine coupling. […] Kinetic parameters were calculated assuming a simple 1:1 (Langmuir) binding. […] All SPR analysis was performed on a BIAcore 3000 system using series CM5 sensor chips. Data processing and analysis were performed using BIAevaluation software. All sensorgrams were double referenced by subtracting the response on a reference flow cell and a blank sample. Human NPR-B (R&D system) was covalently attached to a CM5 chip via amine coupling. A surface density of 3100 RU was used for measurements with natriuretic peptides Sequential injections of AMI263 (FC4-CNP) (0.5-300 nM) were performed at a flow rate of […] (300 s for each), followed by a dissociation time of 900 s. […] Kinetic parameters were calculated assuming a simple 1:1 (Langmuir) binding. […] All SPR analysis was performed on a BIAcore 3000 system using series CM5 sensor chips. Data processing and analysis were performed using BIAevaluation software. All sensorgrams were double referenced by subtracting the response on a reference flow cell and a blank sample. Human NPR-B (R&D system) was covalently attached to a CM5 chip via amine coupling.

[2] = test system: NIH3T3 cells (cGMP secreted); assay: EC50 for CNP-Fc constructs, cGMP ELISA of NIH3T3 supernatant; type: cell-based; settings: NIH3T3, 30 minutes, 1.8 mM IBMX, cGMP secreted by the cells; FIG. 25B
Protocol: EC50 for CNP-Fc described herein were measured by ELISA. 2.5E+05 NIH3T3 cells/well were plated. […] After 30 minutes, supernatant was collected for cGMP determined via ELISA. FIG. 25A illustrates a standard curve of cGMP.

Human NPR-B (R&D system) [3] = molecular target: T2, Human NPR-B (R&D system) (human, UniProt P20594 23-458, limits assumed); assay: SPR (Biacore 3000), FIG. 7C, single-cycle kinetics, NPR-B at 6600 RU on CM5, CNP 0.5-8 nM; differs from Table 32
T2 construct: Bought protein immobilised on the Biacore chip; also called NBR-B; natriuretic peptide receptor B
T2 sequence (looked up): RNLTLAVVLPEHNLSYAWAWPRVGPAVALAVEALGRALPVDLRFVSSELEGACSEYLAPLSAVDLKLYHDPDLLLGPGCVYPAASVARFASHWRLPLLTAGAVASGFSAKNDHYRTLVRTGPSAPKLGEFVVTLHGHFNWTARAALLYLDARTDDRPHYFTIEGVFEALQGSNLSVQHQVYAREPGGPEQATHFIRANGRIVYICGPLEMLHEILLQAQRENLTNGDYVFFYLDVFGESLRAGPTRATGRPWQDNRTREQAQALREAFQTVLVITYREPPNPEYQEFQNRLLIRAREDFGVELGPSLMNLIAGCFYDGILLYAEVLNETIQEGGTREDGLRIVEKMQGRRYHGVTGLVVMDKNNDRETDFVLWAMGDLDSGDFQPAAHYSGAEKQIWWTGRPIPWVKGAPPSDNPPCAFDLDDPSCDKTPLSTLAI
Protocol: Kinetic parameters were calculated assuming a simple 1:1 (Langmuir) binding. […] All SPR analysis was performed on a BIAcore 3000 system using series CM5 sensor chips. Data processing and analysis were performed using BIAevaluation software. All sensorgrams were double referenced by subtracting the response on a reference flow cell and a blank sample. Human NPR-B (R&D system) was covalently attached to a CM5 chip via amine coupling. […] Kinetic parameters were calculated assuming a simple 1:1 (Langmuir) binding. […] All SPR analysis was performed on a BIAcore 3000 system using series CM5 sensor chips. Data processing and analysis were performed using BIAevaluation software. All sensorgrams were double referenced by subtracting the response on a reference flow cell and a blank sample. Human NPR-B (R&D system) was covalently attached to a CM5 chip via amine coupling. […] Kinetic parameters were calculated assuming a simple 1:1 (Langmuir) binding. […] All SPR analysis was performed on a BIAcore 3000 system using series CM5 sensor chips.

[4] = molecular target: T3, NPR-B on NIH/3T3 cells (NPR-B receptor positive cell line) (UniProt Q6VVW5 17-1047, limits assumed); assay: cell-based or functional assay
T3 sequence (looked up): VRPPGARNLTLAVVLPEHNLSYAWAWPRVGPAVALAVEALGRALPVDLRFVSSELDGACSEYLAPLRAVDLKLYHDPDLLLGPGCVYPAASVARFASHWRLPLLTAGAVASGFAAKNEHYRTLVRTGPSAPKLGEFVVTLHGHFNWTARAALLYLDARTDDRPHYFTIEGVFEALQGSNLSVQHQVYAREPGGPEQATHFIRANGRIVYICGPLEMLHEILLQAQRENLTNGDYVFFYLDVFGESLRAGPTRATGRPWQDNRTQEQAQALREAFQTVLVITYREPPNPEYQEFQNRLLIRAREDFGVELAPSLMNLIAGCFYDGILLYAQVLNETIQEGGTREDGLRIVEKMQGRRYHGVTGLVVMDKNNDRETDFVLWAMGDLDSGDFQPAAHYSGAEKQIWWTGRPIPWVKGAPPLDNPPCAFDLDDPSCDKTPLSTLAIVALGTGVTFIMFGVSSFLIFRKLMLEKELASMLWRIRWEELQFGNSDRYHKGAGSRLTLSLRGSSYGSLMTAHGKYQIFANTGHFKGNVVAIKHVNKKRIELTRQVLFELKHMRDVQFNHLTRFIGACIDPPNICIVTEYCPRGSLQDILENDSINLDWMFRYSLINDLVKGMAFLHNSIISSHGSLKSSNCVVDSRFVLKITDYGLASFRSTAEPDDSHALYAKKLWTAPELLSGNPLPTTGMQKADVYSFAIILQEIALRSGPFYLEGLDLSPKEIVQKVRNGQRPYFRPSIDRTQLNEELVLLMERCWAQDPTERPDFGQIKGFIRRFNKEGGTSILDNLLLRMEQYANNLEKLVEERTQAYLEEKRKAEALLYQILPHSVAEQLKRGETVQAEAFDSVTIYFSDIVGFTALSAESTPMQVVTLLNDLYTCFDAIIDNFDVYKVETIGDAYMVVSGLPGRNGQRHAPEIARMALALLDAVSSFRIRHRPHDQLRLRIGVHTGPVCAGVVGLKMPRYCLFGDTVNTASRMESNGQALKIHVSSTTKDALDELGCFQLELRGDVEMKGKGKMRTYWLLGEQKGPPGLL

Human NPR-B (R&D system) [5] = molecular target: T2, Human NPR-B (R&D system); assay: SPR (Biacore 3000), human NPR-B amine-coupled to CM5 chip, single-cycle kinetics, 1:1 Langmuir fit
Protocol: Kinetic parameters were calculated assuming a simple 1:1 (Langmuir) binding. […] All SPR analysis was performed on a BIAcore 3000 system using series CM5 sensor chips. Data processing and analysis were performed using BIAevaluation software. All sensorgrams were double referenced by subtracting the response on a reference flow cell and a blank sample. Human NPR-B (R&D system) was covalently attached to a CM5 chip via amine coupling. […] Kinetic parameters were calculated assuming a simple 1:1 (Langmuir) binding. […] All SPR analysis was performed on a BIAcore 3000 system using series CM5 sensor chips. Data processing and analysis were performed using BIAevaluation software. All sensorgrams were double referenced by subtracting the response on a reference flow cell and a blank sample. Human NPR-B (R&D system) was covalently attached to a CM5 chip via amine coupling. […] Kinetic parameters were calculated assuming a simple 1:1 (Langmuir) binding. […] All SPR analysis was performed on a BIAcore 3000 system using series CM5 sensor chips. Data processing and analysis were performed using BIAevaluation software. All sensorgrams were double referenced by subtracting the response on a reference flow cell and a blank sample. Human NPR-B (R&D system) was covalently attached to a CM5 chip via amine coupling.

[6] = molecular target: T3, NPR-B on NIH/3T3 cells (NPR-B receptor …); assay: cell-based or functional assay; remark: listed apart in the source

| Molecule | half-life [1] | ka (Human NPR-B; (FIG. 7C-7I)) | kd (Human NPR-B; (FIG. 7C-7I)) | ka (Human NPR-B; Table 32 summary of affinity) | kd (Human NPR-B; Table 32 summary of affinity) | EC50 values (rank order) [2] | Kd (Human NPR-B (R&D system) [3]) [nM] | kon (Human NPR-B (R&D system) [3]) [M⁻¹ s⁻¹] | EC50 (cGMP production, table 'EC50 NIH3T3 cells', row CNP-22) [4] [nM] | Kd (Human NPR-B (R&D system) [5]) [nM] | EC50 (cGMP production, drawn table, row CNP-22) [6] [nM] | EC50 (read off the curve), cGMP production [6] [nM] |
| --- | --- | --- | --- | --- | --- | --- | --- | --- | --- | --- | --- | --- |
| CC[C@H](C)[C@@H]1NC(=O)[C@H](CCCNC(=N)N)NC(=O)[C@H](CC(=O)O)NC(=O)[C@H](CC(C)C)NC(=O)[C@H](CCCCN)NC(=O)[C@H](CC(C)C)NC(=O)CNC(=O)[C@H](Cc2ccccc2)NC(=O)[C@@H](NC(=O)CNC(=O)[C@H](CCCCN)NC(=O)[C@H](CO)NC(=O)[C@H](CC(C)C)NC(=O)CN)CSSC[C@@H](C(=O)O)NC(=O)CNC(=O)[C@H](CC(C)C)NC(=O)CNC(=O)[C@H](CO)NC(=O)[C@H](CCSC)NC(=O)[C@H](CO)NC(=O)CNC1=O [CNP-22, reference compound] | only a few minutes | 1.31e7 | 4.74E-4 | 1.37E+07 | 4.74E−04 | CNP-22 ≡Fc4-CNP36>Aflibercept-Fc4-CNP36>Fc1-CNP36>>Fc4-CNP22 |  |  |  |  |  |  |
| GLSKGCFGLKLDRIGSMSGLGC (also called C-type natriuretic peptide) [CNP-22] |  |  |  |  |  |  | 0.0363 | 1.31e+07 | 11.8 | 0.0346 | 11.8 | ~10 |
